Tested on: venous thrombosis
Test: venous thrombosis test in rats (venous stasis with hypercoagulation, Wessler technique, factor Xa), oral administration
Assay type: in vivo
Conditions: dose 6 mg/kg, thrombosis induced 2 h after administration, male Wistar rats
Protocol: The antithrombotic activity of the compounds according to the invention was studied in vivo in rats by virtue of a test that reproduces a venous thrombosis. The venous thrombosis was induced according to the protocol described in Thromb. Haemost. 1992, 67 (1), 176-179. The activity by oral administration was studied according to the following operating protocol: The experiment is carried out on male Wistar rats, not fasting, weighing 250 to 280 g and divided up into groups, each of 8 to 10 animals. The test products are administered orally (by tube) in solution or in suspension in a solution of methylcellulose (0.5% in water). The concentration of the compounds is calculated such that an amount of solution of 10 ml/kg is absorbed orally. A thrombosis is induced at a time T (between 2 hours and 8 hours) after administration of the product, and the thrombus formed is removed and weighed. In order to induce this thrombosis, a venous stasis with hypercoagulation is produced, according to the technique described by WESSLER (J. Applied Physiol. 1959, 943-946) using, as hypercoagulating agent, a solution of activated factor X (Xa), supplied by the company Biogenic (Montpellier), and having a concentration of 7.5 nKat/kg. The venous stasis is produced exactly 10 seconds after the injection of the hypercoagulating agent. The activity of the compounds tested was verified at various doses, after they were administered. The thrombosis was induced between 2 hours and 8 hours after administration of the compound.

SMILES	Activity (%): percentage inhibition of the formation of the thrombus relative to the weight of the thrombus formed in the absence of the compound [%]
Cc1cn2cccc(O[C@@H]3SC[C@@H](O)[C@H](O)[C@H]3O)c2n1 [Example 2, 2-methylimidazo[1,2-α]pyridin-8-yl 5-thio-β-D-xylopyranoside]	94
CC(=O)c1cc2cccc(O[C@@H]3SC[C@@H](O)[C@H](O)[C@H]3O)c2o1 [Example 8, 2-acetyl-7-benzofuranyl 5-thio-β-D-xylopyranoside]	91
Cc1nc2cc(O[C@@H]3SC[C@@H](O)[C@H](O)[C@H]3O)ccc2s1 [Example 12, 2-methyl-5-benzothiazolyl 5-thio-β-D-xylopyranoside]	74
O[C@@H]1[C@@H](O)[C@H](Oc2cccc3ocnc23)SC[C@H]1O [Example 16, 4-benzoxazolyl 5-thio-β-D-xylopyranoside]	80
O[C@@H]1[C@@H](O)[C@H](Oc2cccc3ccoc23)SC[C@H]1O [Example 18, 7-benzofuranyl 5-thio-β-D-xylopyranoside]	62
O[C@@H]1[C@@H](O)[C@H](Oc2cccn3ncnc23)SC[C@H]1O [Example 39, [1,2,4]triazolo[1,5-a]pyridin-8-yl 5-thio-β-D-xylopyranoside]	100
O=C(O)C(F)(F)F.O=C(O)Cc1cn2cccc(O[C@@H]3SC[C@@H](O)[C@H](O)[C@H]3O)c2n1 [Example 43, 8-[(5-thio-β-D-xylopyranosyl)oxy]-imidazo[1,2-α]pyridine-2-acetic acid, salt with trifluoroacetic acid]	53

Reference: US7652032B2, “5-Thioxylopyranose compounds” (Laboratoires Fournier S.A., priority 2007, dated 2010)
